Measured values taken from paper PMC9577195, “Pharmacokinetics, bioavailability, and plasma protein binding study of glytrexate, a novel multitarget antifolate” (Frontiers in Pharmacology, 2022).
Several values for one entry are separate records, joined by “and”; a condition that tells them apart may be missing. Equal values may be shown once. Read-outs that look alike come from different tables or passages of the source.

Assay: Pharmacokinetics and bioavailability in rats after single oral and intravenous doses
Assay type: in vivo, Sprague-Dawley rats
Settings: rat; for AUC(0-inf) / Cmax / half-life / AUC / MRT last / bioavailability / CL/F / Tmax: male, Sprague-Dawley, plasma; for AUC: read-out: AUC0-tn; for MRT last: read-out: MRT0-t; for CL/F / Tmax: po
Procedure: Pharmacokinetic and bioavailability studies were carried out in twenty-four male Sprague–Dawley rats. The rats were randomly divided into four groups (n = 6). All of them were fasted for 12 h before administration and were allowed to drink freely. Approximately 300 μl of blood was collected from the posterior canthus venous plexus of each rat into heparinized tubes at 0.1, 0.16, 0.25, 0.5, 1, 2, 4, 8, 12, and 24 h after a single oral administration (i.g.) (12.5, 25, and 50 mg/kg) or at 0.03 h, 0.08, 0.25, 0.5, 1, 2, 4, 6, 8, 12, and 24 h after a single i.v. injection (2 mg/kg). The blood samples were processed to obtain the plasma via centrifugation at 3500 rpm for 10 min and then stored at −80°C until LC–MS/MS analysis.
The plasma samples obtained were processed using the method described in Section 2.4 and then analyzed using the established LC–MS/MS method. The data were processed using MultiQuant 3.0 software. According to the results of the blood drug concentration measurement in rats, the noncompartmental model in DAS 3.2.8 software was used to calculate the corresponding pharmacokinetic parameters, including peak time (Tmax), elimination half-life (T1/2), area under the drug-time curve (AUC0-t, AUC0-∞), maximum plasma concentration (Cmax), apparent volume of distribution (Vz/F), clearance rate (Clz/F), and average residence time (MRT0-t). GraphPad Prism 8 software was used to construct the trend chart of the changes in various parameters in plasma samples based on the measurements to analyze the possible pharmacokinetic characteristics of glytrexate.
If glytrexate has linear kinetic characteristics, the absolute bioavailability can be calculated according to the bioavailability formula, Fabs=(AUCT·Div)/(AUCiv·DT) × 100%, where AUC represents the area under the plasma concentration-time curve. The subscripts T and iv represent oral and intravenous injection, respectively, and D represents the administered dose. The data obtained in the study are expressed as the mean values plus or minus the standard deviation.

Nc1nc2[nH]c(CC(=O)NCC(=O)N[C@@H](CCC(=O)O)C(=O)O)cc2c(=O)[nH]1 [glytrexate, (S)-2-{2-[2-(2-amino-4-oxo-4,7-dihydro-3H-pyrrolo [2,3-d]pyrimidin-6-yl)-acetylamino]-acetylamino}-pentanedioic acid] gave an AUC(0-inf) (intravenous 2 mg/kg) of 10200 ± 1710 ng·h/mL, a Cmax (intravenous 2 mg/kg) of 17600 ± 767 ng/mL and a half-life (intravenous 2 mg/kg) of 2.78 ± 0.26 h. For the same molecule, the AUC (intravenous 2 mg/kg) was 10200 ± 1710 ng·h/mL, the MRT last (intravenous 2 mg/kg) was 0.91 ± 0.05 h and the AUC(0-inf) (oral 12.5 mg/kg) was 370 ± 26 ng·h/mL. For the same molecule, the Cmax (oral 12.5 mg/kg) was 107 ± 12.1 ng/mL, the half-life (oral 12.5 mg/kg) was 2.15 ± 0.16 h and the bioavailability (oral 12.5 mg/kg vs intravenous 2 mg/kg, read-out: F (bioavailability)) was 0.57 ± 0.08%. It also gave an AUC (oral 12.5 mg/kg) of 362 ± 24.6 ng·h/mL, an MRT last (oral 12.5 mg/kg) of 3.12 ± 0.14 h and an AUC(0-inf) (oral 25 mg/kg) of 750 ± 30.2 ng·h/mL. The Cmax (oral 25 mg/kg) was 496 ± 19.8 ng/mL, the half-life (oral 25 mg/kg) was 2.25 ± 0.093 h and the bioavailability (oral 25 mg/kg vs intravenous 2 mg/kg, read-out: F (bioavailability)) was 0.59 ± 0.06%. The AUC (oral 25 mg/kg) was 750 ± 30.2 ng·h/mL, the MRT last (oral 25 mg/kg) was 2.95 ± 0.16 h and the AUC(0-inf) (oral 50 mg/kg) was 2960 ± 190 ng·h/mL. It also gave a Cmax (oral 50 mg/kg) of 1290 ± 109 ng/mL, a half-life (oral 50 mg/kg) of 2.66 ± 0.15 h and a bioavailability (oral 50 mg/kg vs intravenous 2 mg/kg, read-out: F (bioavailability)) of 1.15 ± 0.07%. For the same molecule, the AUC (oral 50 mg/kg) was 2960 ± 189 ng·h/mL, the MRT last (oral 50 mg/kg) was 3.16 ± 0.096 h and the bioavailability (oral dose range 12.5–50 mg/kg, read-out: oral bioavailability) was 0.57 to 1.15%. The CL/F (12.5 mg/kg, oral 12.5 mg/kg) was 565 mL/min/kg, the Tmax (12.5 mg/kg, oral 12.5 mg/kg, read-out: Tmax) was 0.5 h and the CL/F (25 mg/kg, oral 25 mg/kg) was 556 mL/min/kg. The Tmax (25 mg/kg, oral 25 mg/kg, read-out: Tmax) was 0.5 h, the CL/F (50 mg/kg, oral 50 mg/kg) was 282 mL/min/kg and the Tmax (50 mg/kg, oral 50 mg/kg, read-out: Tmax) was 0.5 h. For the same molecule, the Tmax (50 mg/kg, single oral administration 12.5, 25 and 50 mg/kg, read-out: Tmax (time of peak blood concentration)) was 0.5 h, the “intravenous AUC of glytrexate relative to pemetrexed” value (glytrexate 2 mg/kg vs pemetrexed 10 mg/kg) was “approximately 1.63 fold” and the “intravenous T1/2 of glytrexate relative to pemetrexed” value (intravenous) was “approximately 5 fold”. For the same molecule, the Cl/F (intravenous 2 mg/kg) was 3.33 ± 0.5 mL/min/kg, the V/F (intravenous 2 mg/kg) was 0.80 ± 0.15 L/kg and the Cl/F (oral 12.5 mg/kg, 12.5 mg/kg) was 564.8 ± 42.8 mL/min/kg. The V/F (oral 12.5 mg/kg, 12.5 mg/kg) was 104.724 ± 6.709 L/kg and 104.72 ± 6.71 L/kg, the Cl/F (oral 25 mg/kg, 25 mg/kg) was 556.2 ± 22 mL/min/kg and the V/F (oral 25 mg/kg, 25 mg/kg) was 108.42 ± 7.698 L/kg and 108.42 ± 7.70 L/kg. For the same molecule, the V/F (oral 50 mg/kg, 50 mg/kg) was 64.832 ± 4.529 L/kg and 64.83 ± 4.53 L/kg and the “time of highest plasma concentration” value (single i.v. injection 2 mg/kg) was 0.03 h.
